# Read-outs that look alike come from different tables or passages of the source.
# Tests used:
# Format in all cases: in vivo
# Amaranthus retroflexus = experiment: Greenhouse pre-emergence (PRE) herbicidal test on AMARE; settings: Amaranthus retroflexus, pre-emergence
# In short: (§1)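 Seeds were sown per species in loamy sand with ~3.0% humus, treated pre-emergence and kept at 10-25° C or 20-35° C depending on species. Damage was scored at 20 days after treatment on a 0-100 scale (100 = no emergence or complete destruction of above-ground parts, 0 = no damage).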
# Avena fatua = experiment: Greenhouse pre-emergence (PRE) herbicidal test on AVEFA; settings: use rate 8 gai/ha
# In short: (§2)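 Seeds sown in loamy sand (~3.0% humus); compounds in water applied by fine nozzles directly after sowing, then pots irrigated and hooded until rooting. Plants held at 10-25° C or 20-35° C by species; damage scored 0-100 (100 = no emergence/complete destruction) 20 days after treatment.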
# Brachiaria decumbens = experiment: Greenhouse pre-emergence (PRE) herbicidal test on BRADC; settings: Urochloa decumbens, use rate 8 gai/ha
# In short: as §2
# Euphorbia heterophylla [1] = experiment: Greenhouse pre-emergence (PRE) herbicidal test on EPHHL; settings: Euphorbia heterophylla, pre-emergence
# In short: as §1
# Lolium multiflorum = experiment: Greenhouse pre-emergence (PRE) herbicidal test on LOLMU
# In short: as §1
# Polygonum convolvulus = experiment: Greenhouse pre-emergence (PRE) herbicidal test on POLCO; settings: Fallopia convolvulus, pre-emergence, use rate 8 gai/ha
# From the text: The culture containers used were plastic pots containing loamy sand with approximately 3.0% of humus as substrate. The seeds of the test plants were sown separately for each species.
# For the pre-emergence treatment, the active compounds, suspended or emulsified in water, were applied directly after sowing by means of finely distributing nozzles. The containers were irrigated gently to promote germination and growth and subsequently covered with transparent plastic hoods until the plants had rooted. This cover caused uniform germination of the test plants unless this was adversely affected by the active compounds.
# Depending on the species, the plants were kept at 10-25° C. and 20-35° C., respectively.
# The test period extended over 2 to 4 weeks. During this time, the plants were tended and their response to the individual treatments was evaluated.
# Evaluation was carried out using a scale from 0 to 100. 100 means no emergence of the plants, or complete destruction of at least the above-ground parts, and 0 means no damage or normal course of growth. A good herbicidal activity is given at values of at least 70, and very good herbicidal activity is given at values of at least 85.
# If not stated differently, the respective components A and B, and if appropriate, C were formulated as a 5% by weight strength emulsion concentrate and, with addition of the amount of solvent system, introduced into the spray liquor used for applying the active compound.
# As indicated application was either post emergent (POST) at the respective growth stage (GS) of the weed (BBCH code), or pre-emergent (PRE).
# Assessment was 20 days after treatment (DAT).
# Commelina benghalensis = experiment: Greenhouse post-emergence (POST) herbicidal test on COMBE; settings: 480 h, use rate 4 gai/ha, 20 DAT
# In short: (§3)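 Visual damage rating on a 0–100 scale, 0 meaning normal growth and 100 complete kill of above-ground parts, taken 20 days after treatment. Spray applied post-emergence to plants 3–15 cm tall in loamy sand with approximately 3.0% humus.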
# Echinochloa crus-galli = experiment: Greenhouse post-emergence (POST) herbicidal test on ECHCG; settings: Echinochloa crus-galli, post-emergence; for inhibition at 4 g/ha: use rate 4 gai/ha
# In short: as §3
# Euphorbia heterophylla [2] = experiment: Greenhouse post-emergence (POST) herbicidal test on EPHHL; settings: Euphorbia heterophylla, post-emergence
# In short: as §3
# Setaria viridis = experiment: Greenhouse post-emergence (POST) herbicidal test on SETVI; settings: 480 h, 20 DAT
# In short: as §3
# AMAPA [3] = experiment: Greenhouse pre-emergence (PRE) herbicidal test on AMAPA; settings: pre-emergence; for inhibition at 8 g/ha: use rate 8 gai/ha
# AMAPA [4] = experiment: Greenhouse post-emergence (POST) herbicidal test on AMAPA; settings: post-emergence, 480 h, use rate 2 gai/ha, 20 DAT
smiles,measurement,setting,value
COc1c(Br)cc(F)c(F)c1Nc1nc(N)nc(C(C)(C)F)n1 [Compound I-2],pest or weed control at 2 g/ha,"Amaranthus retroflexus; 432 h, PRE, AMARE, I-2 solo 2 gai/ha, 18 DAT",80%
same,inhibition at 2 g/ha,"Amaranthus retroflexus; 480 h, AMARE PRE, 20 DAT, use rate 2 gai/ha, read-out: % activity",70%
same,pest or weed control at 2 g/ha,"Amaranthus retroflexus; 480 h, PRE, 2 gai/ha, 20 DAT",70%
same,inhibition at 2 g/ha,"Amaranthus retroflexus; 480 h, PRE, AMARE, 2 gai/ha, 20 DAT, read-out: % activity solo application",70%
same,inhibition at 2 g/ha,"Amaranthus retroflexus; 480 h, PRE, AMARE, use rate 2 gai/ha, 20 DAT, read-out: solo application % activity",70%
same,inhibition at 8 g/ha,Avena fatua,50%
same,inhibition at 8 g/ha,Brachiaria decumbens; BRADC PRE,80%
same,inhibition at 8 g/ha,"Brachiaria decumbens; PRE, BRADC",70%
same,pest or weed control at 2 g/ha,"Euphorbia heterophylla [1]; 432 h, PRE, EPHHL, I-2 solo 2 gai/ha, 18 DAT",10%
same,pest or weed control at 8 g/ha,"Euphorbia heterophylla [1]; 432 h, PRE, EPHHL, I-2 solo 8 gai/ha, 18 DAT",35%
same,inhibition at 8 g/ha,"Euphorbia heterophylla [1]; 480 h, EPHHL PRE, 20 DAT, use rate 8 gai/ha, read-out: % activity",10%
same,pest or weed control at 2 g/ha,"Euphorbia heterophylla [1]; 480 h, PRE, 2 gai/ha, 20 DAT",10%
same,pest or weed control at 8 g/ha,"Euphorbia heterophylla [1]; 480 h, PRE, 8 gai/ha, 20 DAT",10%
same,inhibition at 2 g/ha,"Euphorbia heterophylla [1]; 480 h, PRE, EPHHL, 2 gai/ha, 20 DAT, read-out: % activity solo application",0%
same,inhibition at 8 g/ha,"Euphorbia heterophylla [1]; 480 h, PRE, EPHHL, 8 gai/ha, 20 DAT, read-out: % activity solo application",15%
same,inhibition at 2 g/ha,"Euphorbia heterophylla [1]; 480 h, PRE, EPHHL, use rate 2 gai/ha, 20 DAT, read-out: solo application % activity",0%
same,inhibition at 8 g/ha,"Euphorbia heterophylla [1]; 480 h, PRE, EPHHL, use rate 8 gai/ha, 20 DAT, read-out: solo application % activity",15%
same,% activity,"Lolium multiflorum; LOLMU PRE, use rate 2 gai/ha",30%
same,pest or weed control at 2 g/ha,"Lolium multiflorum; Lolium multiflorum, pre-emergence, 432 h, PRE, LOLMU, I-2 solo 2 gai/ha, 18 DAT, read-out: % activity",0%
same,pest or weed control at 8 g/ha,"Lolium multiflorum; Lolium multiflorum, pre-emergence, 432 h, PRE, LOLMU, I-2 solo 8 gai/ha, 18 DAT",30%
same,inhibition at 2 g/ha,"Lolium multiflorum; Lolium multiflorum, pre-emergence, 480 h, LOLMU PRE, 20 DAT, use rate 2 gai/ha, read-out: % activity",10%
same,inhibition at 8 g/ha,"Lolium multiflorum; Lolium multiflorum, pre-emergence, 480 h, LOLMU PRE, 20 DAT, use rate 8 gai/ha, read-out: % activity",15%
same,pest or weed control at 2 g/ha,"Lolium multiflorum; Lolium multiflorum, pre-emergence, 480 h, PRE, 2 gai/ha, 20 DAT, read-out: % activity",10%
same,inhibition at 2 g/ha,"Lolium multiflorum; Lolium multiflorum, pre-emergence, 480 h, PRE, LOLMU, 2 gai/ha, 20 DAT, read-out: % activity solo application",15%
same,inhibition at 8 g/ha,"Lolium multiflorum; Lolium multiflorum, pre-emergence, 480 h, PRE, LOLMU, 8 gai/ha, 20 DAT, read-out: % activity solo application",90%
same,inhibition at 2 g/ha,"Lolium multiflorum; Lolium multiflorum, pre-emergence, 480 h, PRE, LOLMU, use rate 2 gai/ha, 20 DAT, read-out: solo application % activity",15%
same,inhibition at 2 g/ha,"Lolium multiflorum; Lolium multiflorum, pre-emergence, 480 h, PRE, use rate 2 gai/ha, 20 DAT, read-out: % activity",20%
same,inhibition at 8 g/ha,"Lolium multiflorum; Lolium multiflorum, pre-emergence, 480 h, PRE, use rate 8 gai/ha, 20 DAT, read-out: % activity",85%
same,inhibition at 2 g/ha,"Lolium multiflorum; Lolium multiflorum, pre-emergence, LOLMU PRE, use rate 2 gai/ha, read-out: % activity",35%
same,inhibition at 2 g/ha,"Lolium multiflorum; Lolium multiflorum, pre-emergence, PRE, LOLMU, use rate 2 gai/ha, read-out: % activity",40%
same,inhibition at 8 g/ha,"Lolium multiflorum; Lolium multiflorum, pre-emergence, PRE, LOLMU, use rate 8 gai/ha, read-out: % activity",60%
same,inhibition at 8 g/ha,Polygonum convolvulus,80%
same,inhibition at 4 g/ha,Commelina benghalensis,0%
same,pest or weed control at 2 g/ha,"Echinochloa crus-galli; 432 h, POST, ECHCG, I-2 solo 2 gai/ha, 18 DAT",0%
same,pest or weed control at 8 g/ha,"Echinochloa crus-galli; 432 h, POST, ECHCG, I-2 solo 8 gai/ha, 18 DAT",15%
same,inhibition at 2 g/ha,"Echinochloa crus-galli; 480 h, ECHCG POST, 20 DAT, use rate 2 gai/ha, read-out: % activity",0%
same,inhibition at 4 g/ha,"Echinochloa crus-galli; 480 h, POST, ECHCG, 20 DAT",0%
same,inhibition at 4 g/ha,"Echinochloa crus-galli; POST, ECHCG",25%
same,pest or weed control at 2 g/ha,"Euphorbia heterophylla [2]; 432 h, POST, EPHHL, I-2 solo 2 gai/ha, 18 DAT",25%
same,inhibition at 2 g/ha,"Euphorbia heterophylla [2]; 480 h, EPHHL POST, 20 DAT, use rate 2 gai/ha, read-out: % activity",10%
same,pest or weed control at 2 g/ha,"Euphorbia heterophylla [2]; 480 h, POST, 2 gai/ha, 20 DAT",10%
same,inhibition at 8 g/ha,"Euphorbia heterophylla [2]; 480 h, POST, EPHHL, 8 gai/ha, 20 DAT, read-out: % activity solo application",30%
same,inhibition at 4 g/ha,"Euphorbia heterophylla [2]; 480 h, POST, EPHHL, use rate 4 gai/ha, 20 DAT",50%
same,inhibition at 8 g/ha,"Euphorbia heterophylla [2]; 480 h, POST, EPHHL, use rate 8 gai/ha, 20 DAT, read-out: % activity",60%
same,inhibition at 4 g/ha,Setaria viridis; use rate 4 gai/ha,20%
same,inhibition at 8 g/ha,Setaria viridis; use rate 8 gai/ha,25%
same,inhibition at 4 g/ha,"AMAPA [3]; 240 h, use rate 4 gai/ha, 10 DAT",40%
same,inhibition at 8 g/ha,"AMAPA [3]; 240 h, 10 DAT",70%
same,inhibition at 16 g/ha,"AMAPA [3]; 240 h, use rate 16 gai/ha, 10 DAT",75%
same,inhibition at 2 g/ha,"AMAPA [3]; 480 h, use rate 2 gai/ha, 20 DAT",40%
same,inhibition at 8 g/ha,"AMAPA [3]; 480 h, 20 DAT",75%
same,inhibition at 2 g/ha,AMAPA [4],30%
